Laboratory results taken from publication PMC12621200, “Giving an Enzyme Scissors: Serotonin Derivatives as Potent Organocatalytic Switches for DNA Repair Enzyme OGG1” (Journal of Medicinal Chemistry, 2025).

Biological target: T1, OGG1 (Homo sapiens, UniProt O15527)
T1 construct: made in house
Test: Biochemical fluorescence (fluorophore-quencher) assay of OGG1 incision rate, 8-oxoA substrate
Conditions: for AC50 / AC50 (CI95%): concentration giving 50% of the incision rate of OGG1 with APE1 (2 nM) control; for AC50: read-out: AC50 (CI95%); for AC50 (μM): biochemical assay of virtual screening hits (NCI samples), Table S1; call rule not given here

T1 sequence (O15527 whole entry): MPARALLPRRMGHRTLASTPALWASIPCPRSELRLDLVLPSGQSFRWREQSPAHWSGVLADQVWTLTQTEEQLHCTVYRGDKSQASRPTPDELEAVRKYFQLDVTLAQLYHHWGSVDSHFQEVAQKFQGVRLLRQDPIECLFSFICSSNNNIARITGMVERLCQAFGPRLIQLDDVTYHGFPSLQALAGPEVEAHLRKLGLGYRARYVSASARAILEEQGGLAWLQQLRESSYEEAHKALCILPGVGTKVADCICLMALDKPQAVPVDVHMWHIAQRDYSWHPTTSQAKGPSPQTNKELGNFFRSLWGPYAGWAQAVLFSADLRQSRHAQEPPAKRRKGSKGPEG

Row | AC50 | AC50 (CI95%) | OGG1 activation, SAR result in words | Compound | other results
1 |  | inactive | lost activity | NCCc1c(-c2ccccn2)[nH]c2ccc(O)cc12 [Compound 42, 3-(2-Aminoethyl)-2-(pyridin-2-yl)-1H-indol-5-ol] | 
2 |  | inactive | lost activity | NCCc1c(-c2ccncc2)[nH]c2ccc(O)cc12 [Compound 43, 3-(2-Aminoethyl)-2-(pyridin-4-yl)-1H-indol-5-ol] | 
3 | 0.25 µM |  | slight increase in activity | NCCc1c(-c2cncnc2)[nH]c2ccc(O)cc12 [Compound 44, 3-(2-Aminoethyl)-2-(pyrimidin-5-yl)-1H-indol-5-ol] | 
4 | 0.4 µM |  | slight increase in activity | NCCc1c(-c2cncs2)[nH]c2ccc(O)cc12 [Compound 45, 3-(2-Aminoethyl)-2-(thiazol-5-yl)-1H-indol-5-ol] | 
5 | 0.29 µM |  |  | CNCCc1c(-c2cccnc2)[nH]c2ccc(O)cc12 [Compound 46, 3-(2-(Methylamino)-ethyl)-2-(pyridin-3-yl)-1H-indol-5-ol] | 
6 | 8.7 µM |  |  | OCCc1c(-c2cccnc2)[nH]c2ccc(O)cc12 [Compound 47, 3-(2-Hydroxyethyl)-2-(pyridin-3-yl)-1H-indol-5-ol] | decrease of activity (ethanol derivative versus amine 30): ~10 fold
7 |  | inactive | attenuated activity | Cn1c(-c2cccnc2)c(CCN)c2cc(O)ccc21 [Compound 48, 3-(2-Aminoethyl)-1-methyl-2-(pyridin-3-yl)-1H-indol-5-ol] | 
8 |  | inactive |  | NCCc1cncc(-c2cc3cc(O)ccc3[nH]2)c1 [Compound 49, 2-(5-(2-Aminoethyl)-pyridin-3-yl)-1H-indol-5-ol] | 
9 | 28 µM |  |  | NCCc1[nH]c2ccccc2c1-c1cccnc1 [Compound 50, 2-(3-(Pyridin-3-yl)-1H-indol-2-yl)-ethan-1-amine] | 
10 |  | inactive |  | NCCc1[nH]c2ccc(O)cc2c1-c1cccnc1 [Compound 51, 2-(2-Aminoethyl)-3-(pyridin-3-yl)-1H-indol-5-ol] | 
11 | 8.5 µM |  | some residual activity | NCCc1[nH]c2cc(F)c(O)cc2c1-c1cccnc1 [Compound 52, 2-(2-Aminoethyl)-6-fluoro-3-(pyridin-3-yl)-1H-indol-5-ol] | 
12 | 12 µM |  | some residual activity | NCCc1[nH]c2ccc(O)cc2c1-c1cncnc1 [Compound 53, 2-(2-Aminoethyl)-3-(pyrimidin-5-yl)-1H-indol-5-ol] | 

The next lines start with the compound.

Row | Compound | AC50 | AC50 (CI95%) | OGG1 activation, SAR result in words | other results
13 | NCCc1c(-c2cccnc2)[nH]c2ccccc12 [Compound 1, 2-(2-(Pyridin-3-yl)-1H-indol-3-yl)-ethan-1-amine] | 4.1 µM |  |  | 
14 | Cc1ccc2[nH]c(-c3cccnc3)c(CCN)c2c1 [Compound 2, 2-(5-Methyl-2-(pyridin-3-yl)-1H-indol-3-yl)-ethan-1-amine] |  | inactive |  | 
15 | COc1ccc2[nH]c(-c3cccnc3)c(CCN)c2c1 [Compound 3, 2-(5-Methoxy-2-(pyridin-3-yl)-1H-indol-3-yl)-ethan-1-amine] |  | inactive |  | 
16 | NCCc1c(-c2cccnc2)[nH]c2ccc(Cl)cc12 [Compound 4, 2-(5-Chloro-2-(pyridin-3-yl)-1H-indol-3-yl)-ethan-1-amine] |  | inactive |  | 
17 | Cc1cccc2c(CCN)c(-c3cccnc3)[nH]c12 [Compound 5, 2-(7-Methyl-2-(pyridin-3-yl)-1H-indol-3-yl)-ethan-1-amine] |  | inactive |  | 
18 | NC(Cc1c(-c2cccnc2)[nH]c2ccccc12)C(=O)O (stereo not shown) [Compound 6, 2-Amino-3-(2-(pyridin-3-yl)-1H-indol-3-yl)-propanoic Acid] |  | inactive | abolished activity | 
19 | NCCc1c(-c2ccccc2)[nH]c2ccccc12 [Compound 7, 2-Phenyltryptamine] |  | inactive | complete loss of activity | 
20 | NCCc1c(-c2ccccc2)[nH]c2ccc(O)cc12 [Compound 8, 5-Hydroxy-2-phenyltryptamine] | 4 µM |  | showed potency | 
21 | NCCc1c(-c2ccccc2)[nH]c2cc(F)ccc12 [Compound 9, 6-Fluoro-2-phenyltryptamine] |  | inactive |  | 
22 | c1cncc(-c2cc3ccccc3[nH]2)c1 [Compound 10, 2-(Pyridin-3-yl)-1H-indole] | 1.7 µM |  |  | 
23 | Cc1ccc2[nH]c(-c3cccnc3)cc2c1 [Compound 11, 5-Methyl-2-(pyridin-3-yl)-1H-indole] | 5.7 µM |  |  | 
24 | Fc1ccc2[nH]c(-c3cccnc3)cc2c1 [Compound 12, 5-Fluoro-2-(pyridin-3-yl)-1H-indole] | 1.9 µM |  |  | 
25 | Brc1ccc2[nH]c(-c3cccnc3)cc2c1 [Compound 13, 5-Bromo-2-(pyridin-3-yl)-1H-indole] | 1 µM |  |  | 
26 | COc1ccc2[nH]c(-c3cccnc3)cc2c1 [Compound 14, 5-Methoxy-2-(pyridin-3-yl)-1H-indole] | 13 µM |  |  | 
27 | Oc1ccc2[nH]c(-c3cccnc3)cc2c1 [Compound 15, 2-(Pyridin-3-yl)-1H-indol-5-ol] | 6 µM |  |  | 
28 | Fc1cncc(-c2cc3ccccc3[nH]2)c1 [Compound 16, 2-(5-Fluoropyridin-3-yl)-1H-indole] | 1.4 µM |  |  | 
29 | Fc1ccc(-c2cc3ccccc3[nH]2)cn1 [Compound 17, 2-(6-Fluoropyridin-3-yl)-1H-indole] |  | inactive |  | 
30 | Nc1cncc(-c2cc3ccccc3[nH]2)c1 [Compound 18] | > 100 µM |  |  | 
31 | Nc1ccc(-c2cc3ccccc3[nH]2)cn1 [Compound 19, 5-(1H-Indol-2-yl)-pyridin-2-amine] | 9.3 µM |  |  | 
32 | Oc1cncc(-c2cc3ccccc3[nH]2)c1 [Compound 20, 5-(1H-Indol-2-yl)-pyridin-3-ol] | 2.8 µM |  |  | 
33 | Oc1ccc(-c2cc3ccccc3[nH]2)cn1 [Compound 21, 5-(1H-Indol-2-yl)-pyridin-2-ol] |  | inactive |  | 
34 | Clc1ccc(-c2cc3ccccc3[nH]2)cn1 [Compound 22, 2-(6-Chloropyridin-3-yl)-1H-indole] |  | inactive |  | 
35 | Cc1ccc(-c2cc3ccccc3[nH]2)cn1 [Compound 23, 2-(6-Methylpyridin-3-yl)-1H-indole] | 14 µM |  |  | 
36 | c1ccc2[nH]c(-c3ccncc3)cc2c1 [Compound 24, (2-Pyridin-4-yl)-1H-indole] |  | inactive | not tolerated | 

Row | Compound | AC50 | AC50 (CI95%) | OGG1 activation, SAR result in words | other results
37 | c1ccc2[nH]c(-c3cncnc3)cc2c1 [Compound 25, 2-(Pyrimidin-5-yl)-1H-indole] |  | inactive | not tolerated | 
38 | c1ccc2[nH]c(-c3cnc4[nH]ccc4c3)cc2c1 [Compound 26, 5-(1H-Indol-2-yl)-1H-pyrrolo[2,3-b]-pyridine] | 1.4 µM |  |  | 
39 | c1ccc2ncc(-c3cc4ccccc4[nH]3)cc2c1 [Compound 27, 3-(1H-Indol-2-yl)-quinoline] |  | inactive | not tolerated | 
40 | c1cncc(-c2cc3ccccc3o2)c1 [Compound 28, 3-(Benzofuran-2-yl)-pyridine] | 4.1 µM |  |  | 
41 | NCCc1c(-c2cccnc2)[nH]c2cc(O)ccc12 [Compound 31, 3-(2-Aminoethyl)-2-(pyridin-3-yl)-1H-indol-6-ol] |  | inactive |  | 
42 | NCCc1c(-c2cccnc2)[nH]c2c(O)cccc12 [Compound 32, 3-(2-Aminoethyl)-2-(pyridin-3-yl)-1H-indol-7-ol] |  | inactive |  | 
43 | NCCc1c(-c2cccnc2)[nH]c2cccc(O)c12 [Compound 33, 3-(2-Aminoethyl)-2-(pyridin-3-yl)-1H-indol-4-ol] |  | inactive |  | 
44 | NCCc1c(-c2cccnc2)[nH]c2ccc(F)cc12 [Compound 34, 2-(5-Fluoro-2-(pyridin-3-yl)-1H-indol-3-yl)-ethan-1-amine] | 6.4 µM |  | tolerated | 
45 | NCCc1c(-c2cccnc2)[nH]c2cc(F)ccc12 [Compound 35, 2-(6-Fluoro-2-(pyridin-3-yl)-1H-indol-3-yl)-ethan-1-amine] | 5.3 µM |  | tolerated | 
46 | NCCc1c(-c2cccnc2)[nH]c2ccc(N)cc12 [Compound 36, 3-(2-Aminoethyl)-2-(pyridin-3-yl)-1H-indol-5-amine] |  | inactive | not tolerated | 
47 | NCCc1c(-c2cccnc2)[nH]c2ccc(C(=O)O)cc12 [Compound 37, 3-(2-Aminoethyl)-2-(pyridin-3-yl)-1H-indole-5-carboxylic Acid] |  | inactive | not tolerated | 
48 | NCc1c(-c2cccnc2)[nH]c2ccc(O)cc12 [Compound 39, 3-(Aminomethyl)-2-(pyridin-3-yl)-1H-indol-5-ol] |  | inactive | not tolerated | 
49 | NCCCc1c(-c2cccnc2)[nH]c2ccc(O)cc12 [Compound 40, 3-(3-Aminopropyl)-2-(pyridin-3-yl)-1H-indol-5-ol] |  | inactive | not tolerated | 
50 | O=C(O)c1cccc(NC(C(=O)c2ccccc2)c2ccccc2)c1 (stereo not shown) [NSC 4232] |  |  |  | AC50 (μM): inactive
51 | Cn1c(=O)c2[nH]c(C3CCCCC3)nc2n(C)c1=O [NSC 14383] |  |  |  | AC50 (μM): inactive
52 | Cc1ccc(NC(C(=O)c2ccccc2)c2ccccc2)cc1 (stereo not shown) [NSC 26933] |  |  |  | AC50 (μM): inactive
53 | Cl.NC(=O)C1CCCN(Cc2c[nH]c3ccccc23)C1 (stereo not shown) [NSC 32474] |  |  |  | AC50 (μM): inactive
54 | O=C(c1ccccc1)[C@H](Nc1ccc2ccccc2c1)c1ccccc1 [NSC 34924] |  |  |  | AC50 (μM): inactive
55 | O=C1OC(c2c[nH]c3ccccc23)c2ccccc21 (stereo not shown) [NSC 42087] |  |  |  | AC50 (μM): inactive
56 | CC(N)Cc1c[nH]c2ccc(Cl)cc12.Cl (stereo not shown) [NSC 50457] |  |  |  | AC50 (μM): inactive
57 | FC(F)(F)c1nc(Nc2ccccc2)c2[nH]cnc2n1 [NSC 56385] |  |  |  | AC50 (μM): inactive
58 | O=c1cc(Nc2ccc(Cl)c(Cl)c2)[nH]c(=O)[nH]1 [NSC 62573] |  |  |  | AC50 (μM): inactive
59 | CC(N)Cc1c[nH]c2ccccc12 (stereo not shown) [NSC 97069] |  |  |  | AC50 (μM): inactive
